Test results reported in the CombiSolv-Exp solvation set (Vermeire and Green 2021).

Assay: solvent given as SMILES

C=CCCCCCCCC
Settings	solvation free energy, 298 K [kcal/mol]
in CN(C)C=O	-5.12
in O	2.24
in OCCOCCO	-3.32
in OCCOCCOCCO	-3.58
in OCCOCCOCCOCCO	-3.78

CCCCC(C)(C)O
Settings	solvation free energy, 298 K [kcal/mol]
in CCCCCCCC	-5.29
in CCCCCCCCCC	-5.22

CCC=CCC
Settings	solvation free energy, 298 K [kcal/mol]
in C=CCCCCCCCCCCCCCC	-3.51
in O	1.62

OC1CCCC1
Settings	solvation free energy, 298 K [kcal/mol]
in C1COCCO1	-6.33
in CC(C)=O	-6.28
in O	-5.5

CC1=CCC2CC1C2(C)C (stereo not given)
Settings	solvation free energy, 298 K [kcal/mol]
in O	0.97

O=S=O
Settings	solvation free energy, 298 K [kcal/mol]
in C1CCC2CCCCC2C1	-1.26
in C1CCCCC1	-1.23
in C1CCOC1	-3.93
in C1COCCO1	-3.41
in CC1COC(=O)O1	-3.16
in CC#N	-3.25
in CC(=O)N(C)C	-3.52
in CC(C)=O	-3.52
in CC(C)CC(C)(C)C	-1.17
in CCCCCCC	-1.36
in CCCCCCCC	-1.01
in CCCCCCCCCCCCCCCC	-1.1
in CCOC(C)=O	-3.22
in CN1CCCC1=O	-3.11
in CO	-2.84
in COC(=O)CC#N	-2.82
in COC(C)=O	-3.08
in COCCOCCO	-4.09
in COCCOCCOC	-4.02
in COCCOCCOCCOC	-3.89
in COCCOCCOCCOCCOC	-3.85
in CS(C)=O	-4.71
in ClCCCl	-2.55
in N#Cc1ccccc1	-2.59
in O	-2.07
in OCCO	-2.88
in OCc1ccccc1	-2.8
in c1ccncc1	-4.82

CC(C(=O)O)c1ccc(-c2ccccc2)c(F)c1 (stereo not given)
Settings	solvation free energy, 298 K [kcal/mol]
in C1COCCO1	-16.2
in CC(C)=O	-16.1
in CCCCCCCO	-15.6
in CCCCCCO	-15.6
in CCCCCO	-15.7
in CCCCO	-15.7
in CCCO	-15.8
in CCO	-15.9
in CCOC(C)=O	-15.9
in CO	-15.9
in O	-8.42

Cc1ccccc1N(O)C(=O)c1ccc(Cl)cc1
Settings	solvation free energy, 298 K [kcal/mol]
in O	-10.8

CCCCN(CC)c1c([N+](=O)[O-])cc(C(F)(F)F)cc1[N+](=O)[O-]
Settings	solvation free energy, 298 K [kcal/mol]
in O	-3.51

CC(C)CC(C)C
Settings	solvation free energy, 298 K [kcal/mol]
in Brc1ccccc1	-3.81
in C1CCCCC1	-4.32
in C1CCOC1	-4.15
in C1COCCO1	-3.39
in C=CCCCC	-4.22
in C=CCCCCCC	-4.16
in C=CCCCCCCCC	-4.06
in C=CCCCCCCCCCCCCCC	-3.72
in CC1COC(=O)O1	-2.21
in CC#N	-2.78
in CC(=O)N(C)C	-2.97
in CC(=O)O	-3.06
in CC(=O)c1ccccc1	-3.18
in CC(C)=O	-3.45
in CC(C)CC(C)(C)C	-4.15
in CC(C)CCCC(C)CCCC(C)CCCCC(C)CCCC(C)CCCC(C)C	-3.68
in CC(C)CCO	-3.6
in CC(C)O	-3.45
in CC(C)OC(C)C	-4.18
in CCBr	-4.27
in CCC#N	-3.18
in CCC(C)=O	-3.66
in CCCC#N	-3.41
in CCCC(=O)OCC	-3.87
in CCCC(C)=O	-3.74
in CCCCC	-4.33
in CCCCCC	-4.35
in CCCCCC(C)=O	-3.75
in CCCCCCC	-4.22
in CCCCCCCC	-4.14
in CCCCCCCCC	-4.1
in CCCCCCCCCC	-4.06
in CCCCCCCCCCCC	-3.94
in CCCCCCCCCCCCCCCC	-3.85
in CCCCCCCCCCCCO	-3.49
in CCCCCCCCO	-3.57
in CCCCCCOC(C)=O	-3.87
in CCCCO	-3.5
in CCCCOC(C)=O	-3.81
in CCCCOCCCC	-4.13
in CCCO	-3.39
in CCN(CC)CC	-4.26
in CCO	-3.34
in CCOC(C)=O	-3.69
in CCOCC	-4.19
in CCOCCOCCOCC	-3.59
in CCOc1ccccc1	-3.64
in CN1CCCC1=O	-2.82
in CN(C)C=O	-2.82
in CN(C)P(=O)(N(C)C)N(C)C	-3.23
in CNC=O	-2.49
in CO	-2.99
in COC(C)=O	-3.51
in COCCO	-2.84
in COc1ccccc1	-3.57
in CS(C)=O	-2.03
in Cc1ccc(C)cc1	-4.07
in Cc1ccccc1	-4.07
in Cc1ccccn1	-3.66
in ClC(Cl)(Cl)Cl	-4.29
in ClC(Cl)Cl	-4.17
in ClCCCl	-3.63
in ClCCl	-3.96
in Clc1ccccc1	-4.04
in FC(F)(F)C(F)(F)C(F)(F)C(F)(F)C(F)(F)C(F)(F)C(F)(F)C(F)(F)F	-2.77
in FC(F)(F)C(F)(F)C(F)(F)C(F)(F)C(F)(F)C(F)(F)F	-2.85
in Fc1ccccc1	-4.04
in ICI	-2.14
in N#Cc1ccccc1	-3.27
in Nc1ccccc1	-2.55
in O	2.86
in O=C1CCCCC1	-3.56
in O=C1CCCO1	-2.36
in OCc1ccccc1	-2.76
in S=C=S	-4.19
in c1ccccc1	-4.03
in c1ccncc1	-3.4

CCCCNCc1ccc(C)cc1
Settings	solvation free energy, 298 K [kcal/mol]
in O	-5.47

Nc1ccc(-c2ccc(N)cc2)cc1
Settings	solvation free energy, 298 K [kcal/mol]
in Cc1ccccc1C	-15.7

CCCCCCCCCCCC(=O)OC
Settings	solvation free energy, 298 K [kcal/mol]
in O	-2.91

N#Cc1ccncc1
Settings	solvation free energy, 298 K [kcal/mol]
in O	-6.02

CC(C)N
Settings	solvation free energy, 298 K [kcal/mol]
in CCCCCC	-2.78

O=c1[nH]c(=O)[nH]c(=O)[nH]1
Settings	solvation free energy, 298 K [kcal/mol]
in O	-18.1

CCCCCCCCCOC(=O)c1ccccc1C(=O)OCCCC
Settings	solvation free energy, 298 K [kcal/mol]
in O	-6.67

O=C(O)CCCCCC(=O)O
Settings	solvation free energy, 298 K [kcal/mol]
in CCO	-14.2
in CCOCC	-12.8

CCCCCC(C)=O
Settings	solvation free energy, 298 K [kcal/mol]
in CC(C)CCCC(C)CCCC(C)CCCCC(C)CCCC(C)CCCC(C)C	-4.99
in CCCCCC	-5.36
in CCCCCCC	-5.22
in CCCCCCCC	-5.25
in CCCCCCCCCC	-5.18
in CCCCCCCCCCCCCCCC	-5.06
in CCCCCCCCO	-5.65
in CCCCOCCCC	-5.73
in CO	-5.98
in NC=O	-4.75
in O	-3.09
in [2H]O[2H]	-3.07

N#Cc1cccc(O)c1
Settings	solvation free energy, 298 K [kcal/mol]
in O	-9.65

CC(C)OC(C)C
Settings	solvation free energy, 298 K [kcal/mol]
in Brc1cccc2ccccc12	-3.49
in CC(=O)N(C)C	-3.41
in CC(=O)OCc1ccccc1	-3.49
in CC(C)CC(C)(C)C	-3.78
in CCC(C)=O	-3.9
in CCC(C)Cl	-4.16
in CCC(C)O	-3.75
in CCCCCCCC	-3.84
in CCCCCCCCCCO	-3.43
in CCCCCCCCO	-3.63
in CCCCCl	-4.18
in CCCCN(C=O)CCCC	-3.48
in CCCCO	-3.75
in CCCO	-3.79
in CCN1CCCC1=O	-3.23
in CCN(CC)C(C)=O	-3.51
in CCNC(C)=O	-3.33
in CCNC=O	-3.23
in CN1CCCCC1=O	-3.27
in CN(C)C=O	-3.19
in CNC(C)=O	-3.25
in CNC=O	-3.04
in CO	-3.82
in ClC(Cl)(Cl)Cl	-4.23
in [2H]O[2H]	-1.56
in c1ccc2ncccc2c1	-3.45

C=C1C2CCC3C2C(C)(C)CCCC13C (stereo not given)
Settings	solvation free energy, 298 K [kcal/mol]
in O	0.8
